These results are taken from US9963455B2, “Pyrazolo[1,5-a]pyrimidines as antiviral compounds” (Curovir AB, priority 2014, dated 2018).

Where two headings read alike, the source gives them in different places.

What all share (type): cell-based
In assay [1] the test system is coxsackie B virus strain 4. The experiment in a line: CPE inhibition in mammalian cell culture, Cox-B4.
The test system of a further assay is Ljungan virus strain 012. The assay can be described thus: CPE inhibition in mammalian cell culture, LV012. The following applies: Parechovirus B; for inhibition at 100 µM: Conc. 0.1 mM; for inhibition at 5 µM: Conc. 5 µM.
Another assay deals with Ljungan virus strain 145. The experiment in a line: CPE inhibition in mammalian cell culture, LV145. Further details: inhibition: dose or concentration left out as unconfirmed. To be noted: Parechovirus B; for inhibition at 100 µM: Conc. 0.1 mM.
Assay [2] has as its system Human parechovirus strain 1. The assay can be described thus: CPE inhibition in mammalian cell culture, HPeV-1. The following applies: Parechovirus A; for inhibition at 2.5 µM: Conc. 2.5 µM; for inhibition at 5 µM: Conc. 5 µM.
In the next assay the test system is Enterovirus strain 30. The assay can be described thus: CPE inhibition in mammalian cell culture, EV30. Further details: inhibition: dose or concentration left out as unconfirmed. To be noted: for inhibition at 2.5 µM: Conc. 2.5 µM; for inhibition at 5 µM: Conc. 5 µM.
Assay [3] concerns coxsackie B virus strain 1. The experiment in a line: CPE inhibition in mammalian cell culture, Cox-B1. Further details: inhibition: dose or concentration left out as unconfirmed.
Assay [4] has as its system coxsackie B virus strain 2. The experiment in a line: CPE inhibition in mammalian cell culture, Cox-B2. The following applies: read-out: antiviral effect, B2. Further details: inhibition: dose or concentration left out as unconfirmed.
Assay [5] relates to coxsackie B virus strain 5. The assay can be described thus: CPE inhibition in mammalian cell culture, Cox-B5. Further details: inhibition: dose or concentration left out as unconfirmed.
Another assay concerns polio virus strain 1. The assay can be described thus: microbe, parasite or virus in culture. Also on record: inhibition: dose or concentration left out as unconfirmed. The following applies: read-out: antiviral effect, Polio 1.
Assay [6] has as its system encephalomyocarditis virus. The experiment in a line: CPE inhibition in mammalian cell culture, EMCV. Also on record: inhibition: dose or concentration left out as unconfirmed. To be noted: Cardiovirus A; for inhibition at 10 µM: Conc. 10.0 μM; for inhibition at 100 µM: Conc. 0.1 mM.
Assay [7] deals with coxsackie B virus strain 3. The assay can be described thus: CPE inhibition in mammalian cell culture, Cox-B3. Further details: inhibition: dose or concentration left out as unconfirmed.
For the next assay, the system named is Enterovirus strain 71. The assay can be described thus: CPE inhibition in mammalian cell culture, EV71. Also on record: inhibition: dose or concentration left out as unconfirmed. The following applies: read-out: antiviral effect, EV71.
For another assay, the system named is Enterovirus strain 6. The assay can be described thus: microbe, parasite or virus in culture. Also on record: inhibition: dose or concentration left out as unconfirmed. To be noted: Conc., read-out: antiviral effect, EV6.
Where [8] appears, read: Conc. 2.5 µM, read-out: antiviral effect, LV012.
Where [9] appears, read: read-out: antiviral effect, HPeV-1.
Setting [10] is: read-out: antiviral effect, EV30.
Setting [11] is: read-out: antiviral effect, LV012.
[12] abbreviates: read-out: antiviral effect, LV145.
Setting [13] is: read-out: antiviral effect, EMCV.
The mark [14] stands for this setting: HPeV-1, Conc. 10.0 μM, read-out: % inh.

In the case of `COc1ccc(-c2c(C)nn3c(Nc4ccc(C(F)(F)F)cc4)cc(C)nc23)cc1OC` [Ex. 73, 3-(3,4-dimethoxyphenyl)-2,5-dimethyl-N-[4-(trifluoromethyl)phenyl]pyrazolo[1,5-a]pyrimidin-7-amine], the inhibition at 0.1 µM in assay [1] (read-out: % inh.) came out at 44%.

On to `COc1ccc(-c2c(C)nn3c(NCCCc4ccccc4)cc(C)nc23)cc1OC` [Ex. 7, 3-(3,4-dimethoxyphenyl)-2,5-dimethyl-N-(3-phenylpropyl)pyrazolo[1,5-a]pyrimidin-7-amine], for which the inhibition at 2.5 µM in the assay on Ljungan virus strain 012 (setting [8]) was 14%; with Ljungan virus strain 145 (LV145, Conc. 2.5 μM), 54%; in assay [2] (setting [9]) it was 6%; in the assay on Enterovirus strain 30 (setting [10]), 89%. Also, the inhibition at 2500 µM in assay [3] (read-out: antiviral effect, B1) was found to be 77%; in [4], 92%; in assay [1] (read-out: antiviral effect, B4), 82%; in [5] (read-out: antiviral effect, B5), 68%; with polio virus strain 1, 80%.

Take `Cc1cc(NCc2ccc(F)cc2)n2nc(C)c(-c3ccc(Cl)c(Cl)c3)c2n1` [Ex. 103, 3-(3,4-dichlorophenyl)-N-[(4-fluorophenyl)methyl]-2,5-dimethyl-pyrazolo[1,5-a]pyrimidin-7-amine]: in assay [6] (EMCV), the inhibition at 10 µM was found to be 74%.

On to `COc1ccc(-c2c(C)nn3c(NC4CCCC4)cc(C)nc23)cc1OC` [Ex. 41, N-cyclopentyl-3-(3,4-dimethoxyphenyl)-2,5-dimethyl-pyrazolo[1,5-a]pyrimidin-7-amine], for which the inhibition at 10 µM in [6] (EMCV) was determined as 93%.

`COc1ccc(-c2c(C)nn3c(NCc4ccc(C)nc4)cc(C)nc23)cc1OC` [Ex. 92, 3-(3,4-dimethoxyphenyl)-2,5-dimethyl-N-[(6-methyl-3-pyridyl)methyl]pyrazolo[1,5-a]pyrimidin-7-amine]: the inhibition at 100 µM (in the assay with Ljungan virus strain 012 (setting [11]); in the assay on Ljungan virus strain 145 (setting [12]); in assay [6] (setting [13])) was 0% in each case. In addition, the inhibition with Enterovirus strain 30 (setting [10]) worked out at 100%; in assay [3] (read-out: antiviral effect, B1), 100%; in [4], 96%; in assay [7] (read-out: antiviral effect, B3), 100%; in [5] (read-out: antiviral effect, B5) it was 95%; with polio virus strain 1 it was 98%. Further, the inhibition at 0.01 µM in [7] (read-out: % inh.) stood at 100%.

Regarding `Cc1cc(NCc2ccccc2)n2ncc(-c3ccc(Cl)cc3)c2n1` [Ex. 25, N-benzyl-3-(4-chlorophenyl)-5-methyl-pyrazolo[1,5-a]pyrimidin-7-amine], in assay [2] (setting [14]), the inhibition at 10 µM came to 24%.

For the molecule `COc1ccc(-c2c(C)nn3c(Nc4ccc(Cl)cc4)cc(C)nc23)cc1OC` [Ex. 47, N-(4-chlorophenyl)-3-(3,4-dimethoxyphenyl)-2,5-dimethyl-pyrazolo[1,5-a]pyrimidin-7-amine], in assay [2] (setting [14]), the inhibition at 10 µM amounted to 56%.

For `COc1ccc(-c2c(C)nn3c(NCc4ccc(C(C)=O)cc4)cc(C)nc23)cc1OC` [Ex. 94, 1-[4-[[[3-(3,4-dimethoxyphenyl)-2,5-dimethyl-pyrazolo[1,5-a]pyrimidin-7-yl]amino]methyl]phenyl]ethanone], the inhibition at 100 µM in the assay with Ljungan virus strain 012 (setting [11]) came out at 12%; in the assay on Ljungan virus strain 145 (setting [12]), 0%; in [6] (setting [13]), 0%; in the assay with Enterovirus strain 30 (Conc. 0.1 mM, read-out: antiviral effect, EV30) it was 96%; in the assay with Enterovirus strain 71 (Conc. 0.1 mM) it was 100%. Moreover, the inhibition at 0.01 µM in assay [3] (read-out: % inh.) was 100%. Besides, the inhibition in assay [3] (read-out: antiviral effect, B1) was determined as 100%; in assay [4] it was 100%; in assay [7] (read-out: antiviral effect, B3) it was 100%; in assay [5] (read-out: antiviral effect, B5) it was 56%; in the assay with polio virus strain 1, 100%.

As to `Cc1ccc(-c2c(C)nn3c(NCc4ccccn4)cc(C)nc23)cc1` [Ex. 33, 2,5-dimethyl-3-(p-tolyl)-N-(2-pyridylmethyl)pyrazolo[1,5-a]pyrimidin-7-amine], the inhibition is 69% in the assay with Ljungan virus strain 145 (Conc., read-out: antiviral effect, LV145); 60% in assay [6] (Conc., read-out: antiviral effect, EMCV); 0% in the assay with Enterovirus strain 71 (Conc.). In addition, the inhibition at 10 µM is 13% in assay [2] (Conc. 10 µM, read-out: antiviral effect, HPeV-1) and 85% with Enterovirus strain 30 (Conc. 10 µM, read-out: antiviral effect, EV30). The inhibition at 1 µM in the assay on Enterovirus strain 30 (EV30, Conc. 1.0 μM, read-out: % inh.) is 48%. For the same molecule, the inhibition at 10000 µM in [4] was determined as 81%; in assay [5] (read-out: antiviral effect, B5), 92%; in the assay on polio virus strain 1, 58%.

Turning to `Cc1cc(NC(C)c2ccccc2)n2nc(C)c(-c3ccc(F)cc3)c2n1` (stereo not drawn) [Ex. 3, 3-(4-fluorophenyl)-2,5-dimethyl-N-(1-phenylethyl)pyrazolo[1,5-a]pyrimidin-7-amine], the inhibition at 2.5 µM in assay [6] (EMCV, Conc. 2.5 μM) was found to be 92%.

On to `COc1ccc(-c2c(C)nn3c(NCc4ccc(C(F)(F)F)cc4)cc(C)nc23)cc1OC` [Ex. 72, 3-(3,4-dimethoxyphenyl)-2,5-dimethyl-N-[[4-(trifluoromethyl)phenyl]methyl]pyrazolo[1,5-a]pyrimidin-7-amine], for which the inhibition at 1 µM with Ljungan virus strain 012 (Conc. 1 µM, read-out: antiviral effect, LV012) turned out to be 0%; in [2] (Conc. 1 µM, read-out: antiviral effect, HPeV-1) it was 4%; with Enterovirus strain 30 (Conc. 1 µM, read-out: antiviral effect, EV30), 100%. For the same molecule, the inhibition at 1000 µM in assay [3] (read-out: antiviral effect, B1) was 100%; in [4] it was 94%; in [7] (read-out: antiviral effect, B3) it was 99%; in assay [1] (read-out: antiviral effect, B4), 91%; in assay [5] (read-out: antiviral effect, B5), 99%; in the assay on polio virus strain 1, 100%. Moreover, the inhibition at 0.1 µM in [1] (read-out: % inh.) was 85%.

Turning to `COc1ccc(-c2c(C)nn3c(NC4CCCCC4)cc(C)nc23)cc1OC` [Ex. 43, N-cyclohexyl-3-(3,4-dimethoxyphenyl)-2,5-dimethyl-pyrazolo[1,5-a]pyrimidin-7-amine], in assay [2] (setting [14]), the inhibition at 10 µM amounted to 46%.

Consider `COc1ccc(-c2c(C)nn3c(Nc4ccon4)cc(C)nc23)cc1OC` [Ex. 95, N-[3-(3,4-dimethoxyphenyl)-2,5-dimethyl-pyrazolo[1,5-a]pyrimidin-7-yl]isoxazol-3-amine], for which the inhibition at 10 µM in assay [2] (setting [14]) turned out to be 55%.

Consider `COc1ccc(-c2c(C)nn3c(NCCc4ccc(Cl)cc4)cc(C)nc23)cc1OC` [Ex. 5, N-[2-(4-chlorophenyl)ethyl]-3-(3,4-dimethoxyphenyl)-2,5-dimethyl-pyrazolo[1,5-a]pyrimidin-7-amine], for which the inhibition at 5 µM with Ljungan virus strain 012 (setting [11]) worked out at 18%; in assay [2] (setting [9]), 22%; in the assay on Enterovirus strain 30 (setting [10]), 58%. In addition, the inhibition in the assay with Enterovirus strain 6 was 80%. The inhibition at 5000 µM came to 79% in assay [3] (read-out: antiviral effect, B1); 76% in assay [4]; 97% in assay [1] (read-out: antiviral effect, B4); 94% in assay [5] (read-out: antiviral effect, B5); 68% in the assay with polio virus strain 1. For the same molecule, the inhibition at 0.25 µM in assay [1] (read-out: % inh.) was 71%.

Turning to `COc1ccc(-c2c(C)nn3c(Nc4ccccc4)cc(C)nc23)cc1OC` [Ex. 57, 3-(3,4-dimethoxyphenyl)-2,5-dimethyl-N-phenyl-pyrazolo[1,5-a]pyrimidin-7-amine], the inhibition at 10 µM in assay [2] (setting [14]) was found to be 22%.

With `COc1ccc(-c2c(C)nn3c(NCc4ccc(NC(C)=O)cc4)cc(C)nc23)cc1OC` [Ex. 77, N-[4-[[[3-(3,4-dimethoxyphenyl)-2,5-dimethyl-pyrazolo[1,5-a]pyrimidin-7-yl]amino]methyl]phenyl]acetamide], the inhibition at 0.1 µM in assay [7] (read-out: % inh.) worked out at 60%.

For the molecule `COc1ccc(CCNc2cc(C)nc3c(-c4ccc(OC)c(OC)c4)c(C)nn23)c(OC)c1` [Ex. 12, 3-(3,4-dimethoxyphenyl)-N-[2-(2,4-dimethoxyphenyl)ethyl]-2,5-dimethyl-pyrazolo[1,5-a]pyrimidin-7-amine], the inhibition at 2.5 µM came to 60% in the assay on Ljungan virus strain 012 (setting [8]); 60% with Ljungan virus strain 012 (LV012, Conc. 2.5 μM, read-out: % inh.); 8% in assay [2] (setting [9]); 84% in the assay on Enterovirus strain 30 (setting [10]). Further, the inhibition at 2500 µM stood at 93% in [3] (read-out: antiviral effect, B1); 77% in assay [1] (read-out: antiviral effect, B4); 82% in assay [5] (read-out: antiviral effect, B5); 73% in the assay with polio virus strain 1.

For `COc1ccc(-c2c(C)nn3c(NCc4ccc5c(c4)OCO5)cc(C)nc23)cc1OC` [Ex. 8, N-(1,3-benzodioxol-5-ylmethyl)-3-(3,4-dimethoxyphenyl)-2,5-dimethyl-pyrazolo[1,5-a]pyrimidin-7-amine], the results for the inhibition at 5 µM (with Ljungan virus strain 012 (setting [11]); in assay [2] (setting [9]); with Enterovirus strain 30 (setting [10])) were 38%, 14% and 53%, respectively. Besides, the inhibition in the assay on Enterovirus strain 6 came to 88%. For the same molecule, the inhibition at 5000 µM in assay [3] (read-out: antiviral effect, B1) came out at 82%; in assay [4], 100%; in [1] (read-out: antiviral effect, B4), 89%; in assay [5] (read-out: antiviral effect, B5) it was 100%; in the assay with polio virus strain 1 it was 91%. Moreover, the inhibition at 0.25 µM in [5] (read-out: % inh.) is 100%.
